How the values were obtained:
[1] = Inhibition of SOS1/KRAS G13D mutant protein-protein interaction in human DLD-1 cells assessed as ERK1/2 phosphorylation measured after 1 hr by homogeneous time-resolved fluorescence (HTRF) method; type: cell-based; conditions: DLD-1, 1 h
SOS1-KRAS = SOS1-KRAS (Homo sapiens, UniProt Q07889); assay: Inhibition of human recombinant SOS1 (residue 564-1049)/KRAS G12C mutant protein-protein interaction at incubated for 25 degC for 60 mins by homogeneous time-resolved fluorescence (HTRF) method
[2] = Cmax in ICR mouse at 20 mg/kg, po by LC-MS/MS analysis; type: ADME, organism-based; parameters: dose 20 mg/kg, route po; conditions: in vivo
[3] = Elimination rate constant in ICR mouse at 20 mg/kg, po by LC-MS/MS analysis; type: ADME, organism-based; conditions: in vivo; for k el: ICR
[4] = Tmax in ICR mouse at 20 mg/kg, po by LC-MS/MS analysis; type: ADME, organism-based; conditions: in vivo
[5] = MRT in ICR mouse at 20 mg/kg, po by LC-MS/MS analysis; type: ADME, organism-based; conditions: in vivo
[6] = AUC in ICR mouse at 20 mg/kg, po by LC-MS/MS analysis; type: ADME, organism-based; parameters: dose 20 mg/kg, route po; conditions: in vivo
[7] = Half life in ICR mouse at 20 mg/kg, po by LC-MS/MS analysis; type: ADME, organism-based; conditions: in vivo; for half-life: ICR
[8] = Toxicity in BALB/c mouse xenografted with human MIA PaCa-2 cells harboring KRAS G12C mutant assessed as change in body weight at 50 mg/kg, po once a day measured for 16 days; type: organism-based; conditions: in vivo, 384 h, time 16 day
MIA PaCa-2 = assay: In vivo antitumor activity against human MIA PaCa-2 cells harboring KRAS G12C mutant xenografted in BALB/c mouse assessed as reduction in tumor volume at 50 mg/kg, po once a day measured for 16 days relative to control; type: functional; parameters: scale not given: the % may be the effect or the level left; conditions: time 16 day
[9] = Toxicity in BALB/c mouse xenografted with human MIA PaCa-2 cells harboring KRAS G12C mutant assessed as mortality at 50 mg/kg, po once a day measured for 16 days; type: organism-based; conditions: in vivo, 384 h, time 16 day
[10] = Tmax in ICR mouse at 10 mg/kg, po by LC-MS/MS analysis; type: ADME, organism-based; conditions: in vivo
[11] = MRT in ICR mouse at 10 mg/kg, po by LC-MS/MS analysis; type: ADME, organism-based; conditions: in vivo
[12] = Cmax in ICR mouse at 10 mg/kg, po by LC-MS/MS analysis; type: ADME, organism-based; parameters: dose 10 mg/kg, route po; conditions: in vivo
[13] = Elimination rate constant in ICR mouse at 10 mg/kg, po by LC-MS/MS analysis; type: ADME, organism-based; conditions: in vivo
[14] = Half life in ICR mouse at 10 mg/kg, po by LC-MS/MS analysis; type: ADME, organism-based; conditions: in vivo
[15] = AUC in ICR mouse at 10 mg/kg, po by LC-MS/MS analysis; type: ADME, organism-based; parameters: dose 10 mg/kg, route po; conditions: in vivo

SOS1-KRAS, sequence (Q07889 whole entry, looked up, stated change not applied): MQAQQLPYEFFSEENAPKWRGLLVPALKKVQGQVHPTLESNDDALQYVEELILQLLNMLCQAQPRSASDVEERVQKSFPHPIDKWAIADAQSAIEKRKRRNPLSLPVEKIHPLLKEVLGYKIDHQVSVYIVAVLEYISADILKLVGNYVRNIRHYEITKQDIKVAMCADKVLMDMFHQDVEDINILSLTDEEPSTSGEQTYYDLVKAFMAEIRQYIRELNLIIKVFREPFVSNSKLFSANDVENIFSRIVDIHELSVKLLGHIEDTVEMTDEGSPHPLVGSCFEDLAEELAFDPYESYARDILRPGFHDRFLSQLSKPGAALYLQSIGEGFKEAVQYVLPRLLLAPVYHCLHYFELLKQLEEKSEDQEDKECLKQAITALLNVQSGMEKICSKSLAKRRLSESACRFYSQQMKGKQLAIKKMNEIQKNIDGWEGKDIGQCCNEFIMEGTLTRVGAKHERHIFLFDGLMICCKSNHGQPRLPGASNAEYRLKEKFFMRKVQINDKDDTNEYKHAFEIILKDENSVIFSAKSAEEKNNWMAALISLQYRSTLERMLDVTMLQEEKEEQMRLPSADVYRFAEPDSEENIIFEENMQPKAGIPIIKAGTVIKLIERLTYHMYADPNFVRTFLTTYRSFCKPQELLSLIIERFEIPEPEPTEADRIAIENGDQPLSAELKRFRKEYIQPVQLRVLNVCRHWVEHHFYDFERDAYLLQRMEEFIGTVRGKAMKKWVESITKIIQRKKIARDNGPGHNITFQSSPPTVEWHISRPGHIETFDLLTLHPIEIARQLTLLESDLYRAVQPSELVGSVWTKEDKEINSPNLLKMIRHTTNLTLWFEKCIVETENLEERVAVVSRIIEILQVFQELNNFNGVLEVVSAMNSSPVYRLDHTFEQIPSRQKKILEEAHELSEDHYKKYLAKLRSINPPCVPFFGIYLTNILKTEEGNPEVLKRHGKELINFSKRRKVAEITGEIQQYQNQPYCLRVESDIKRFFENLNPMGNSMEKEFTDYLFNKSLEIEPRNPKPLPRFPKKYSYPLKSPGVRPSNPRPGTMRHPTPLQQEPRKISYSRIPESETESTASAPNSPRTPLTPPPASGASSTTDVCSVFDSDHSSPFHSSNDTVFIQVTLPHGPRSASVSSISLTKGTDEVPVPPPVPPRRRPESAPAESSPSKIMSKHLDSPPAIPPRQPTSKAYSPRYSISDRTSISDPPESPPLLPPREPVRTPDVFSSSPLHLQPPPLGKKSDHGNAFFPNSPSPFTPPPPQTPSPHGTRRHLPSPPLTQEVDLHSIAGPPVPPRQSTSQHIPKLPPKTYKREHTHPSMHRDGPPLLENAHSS

Compound	IC50 [1] [nM]	Cmax [2] [ng/mL]	Tmax [4] [h]	MRT [5] [h]	AUC [6] [ng·h/mL]	further results
COCCN1CCN2c3cc4c(N[C@H](C)c5cccc(C(F)F)c5F)nc(C)nc4cc3OC[C@H]2C1	97	–	–	–	–	–
Cc1nc(N[C@H](C)c2cccc(C(F)F)c2F)c2cc3c(cc2n1)OC[C@H]1CN(C(=O)C2CC2(F)F)CCN31 (some centres not stated)	26	–	–	–	–	–
Cc1nc(N[C@H](C)c2cccc(C(F)F)c2F)c2cc3c(cc2n1)OC[C@H]1CN(C2COC2)CCN31	96	–	–	–	–	–
Cc1nc(N[C@H](C)c2cc(N)cc(C(F)(F)F)c2)c2cc3c(cc2n1)OCCO3	690	–	–	–	–	IC50 (SOS1-KRAS): 904 nM
Cc1nc(N[C@H](C)c2cccc(C(F)F)c2F)c2cc3c(cc2n1)OC[C@H]1CN(C(=O)C2CCN(C)CC2)CCN31	98	–	–	–	–	–
CCNC(=O)N1CCN2c3cc4c(N[C@H](C)c5cccc(C(F)F)c5F)nc(C)nc4cc3OC[C@H]2C1	32	–	–	–	–	–
COCC1(C(=O)N2CCN3c4cc5c(N[C@H](C)c6cccc(C(F)F)c6F)nc(C)nc5cc4OC[C@H]3C2)CC1	0.9	161	0.25	2.62	398	k el [3]: 8.33e-05 s⁻¹; half-life [7]: 2.28 h
Cc1nc(N[C@H](C)c2cccc(C(F)F)c2F)c2cc3c(cc2n1)OC[C@H]1CN(C(=O)C2(F)CC2)CCN31	1.7	582	1.5	2.59	2100	k el [3]: 8.33e-05 s⁻¹; half-life [7]: 2.34 h
Cc1nc(N[C@H](C)c2cccc(C(F)F)c2F)c2cc3c(cc2n1)OC[C@H]1CN(C(=O)NC2CC2)CCN31	8	557	6	4.36	3490	Activity [8]: Non-Toxic; Kel ([3]; po, 20 mg/kg): 0.14 h⁻¹; Activity (MIA PaCa-2): 47%; Activity [9]: Non-Toxic; t1/2 ([7]; po, 20 mg/kg): 12.6 h
Cc1nc(N[C@H](C)c2cccc(C(F)F)c2F)c2cc3c(cc2n1)OC[C@H]1CN(CC(=O)N(C)C)CCN31	295	–	–	–	–	–
Cc1nc(N[C@H](C)c2cccc(C(F)F)c2F)c2cc3c(cc2n1)OC[C@H]1CN(C(=O)C2(C#N)CC2)CCN31	14	600	1.33	4.43	4460	k el [3]: 5e-05 s⁻¹; half-life [7]: 3.87 h
Cc1nc(N[C@H](C)c2cccc(C(F)F)c2F)c2cc3c(cc2n1)OC[C@H]1CN(C(=O)[C@@H]2C[C@@H]2F)CCN31	22	–	–	–	–	–
CC(=O)N1CCN2c3cc4c(N[C@H](C)c5cccc(C(F)(F)C(C)(C)O)c5F)nc(C)nc4cc3OC[C@H]2C1	10	–	–	–	–	Tmax [10]: 0.625 h; MRT [11]: 1 h; Cmax [12]: 5.03 ng/mL; k el [13]: 3.89e-05 s⁻¹; half-life [14]: 3.24 h; AUC [15]: 7.7 ng·h/mL; IC50 (SOS1-KRAS): 12.7 nM
Cc1nc(N[C@H](C)c2cccc(C(F)F)c2F)c2cc3c(cc2n1)OC[C@H]1CN(C(=O)C(C)(C)C)CCN31	25	–	–	–	–	–
Cc1nc(N[C@H](C)c2cccc(C(F)F)c2F)c2cc3c(cc2n1)OC[C@H]1CN(c2ncc(F)cn2)CCN31	99	–	–	–	–	–
Cc1nc(N[C@H](C)c2cccc(C(F)F)c2F)c2cc3c(cc2n1)OC[C@H]1CN(C(=O)C2CC2)CCN31	367	–	–	–	–	–
Cc1nc(N[C@H](C)c2cccc(C(F)F)c2F)c2cc3c(cc2n1)OC[C@H]1CN(C(=O)C2CCOCC2)CCN31	18	241	0.91	2.46	646	k el [3]: 9.44e-05 s⁻¹; half-life [7]: 2.13 h
Cc1nc(N[C@H](C)c2cc(N)cc(C(F)(F)F)c2)c2cc3c(cc2n1)OC[C@H]1CN(C2CCOCC2)CCN31	48	–	–	–	–	IC50 (SOS1-KRAS): 18 nM
Cc1nc(N[C@H](C)c2cccc(C(F)F)c2F)c2cc3c(cc2n1)OC[C@H]1CN(C(=O)c2ccnn2C)CCN31	691	–	–	–	–	–
Cc1nc(N[C@H](C)c2cc(N)cc(C(F)(F)F)c2)c2cc3c(cc2n1)OC[C@H]1COCCN31	38	–	–	–	–	IC50 (SOS1-KRAS): 6 nM
COCC(=O)N1CCN2c3cc4c(N[C@H](C)c5cccc(C(F)F)c5F)nc(C)nc4cc3OC[C@H]2C1	10	180	0.83	3.43	860	k el [3]: 3.06e-05 s⁻¹; half-life [7]: 5.86 h
Cc1nc(N[C@H](C)c2cccc(C(F)F)c2F)c2cc3c(cc2n1)OC[C@H]1CN(C(=O)N2CCOCC2)CCN31	9.7	356	0.5	2.14	872	k el [3]: 0.0001 s⁻¹; half-life [7]: 1.78 h

From ChEMBL document CHEMBL5236589, “Design and Structural Optimization of Orally Bioavailable SOS1 Inhibitors for the Treatment of KRAS-Driven Carcinoma” (J Med Chem, 2022)
